Laboratory results published in US5466678A, “Co-administration of S-adenosyl-L-methionine to reduce the nephrotoxicity of cisplatin therapy” (priority 1992, dated 1995).
Like-named read-outs stand apart in the source and are kept apart here.

Tests used:
[1] = tested on: human tumors; assay: Antitumor activity in vitro, human tumors (summary); type: cell-based; details: CDDP alone
Protocol: Human tumor cells which are listed below were adjusted to 5×10^3 -2×10^4 cells/ml in culture medium RPMI 1640 (N.B. 1) or MEM (N.B. 2), and the respective cultures were dispensed in 2 ml portions into culture Petri dishes. […] After the culture medium was removed with suction, the respective residues were washed once with cold PBS (-), supplemented with 2 ml portions of fresh medium and then cultured for further 72 hours. The cells were treated with trypsin, diluted and then counted using a Coulter counter.

[2] = tested on: L1210 leukemic cells; assay: Test Example 7: in vitro antitumor activity, L1210; type: cell-based, mouse; details: test drug alone
Protocol: (§1) Mouse L1210 and P388 leukemic cells were adjusted to 10^4 cells/ml in culture medium RPMI 1640, and the mixture was dispensed in 2 ml portions into culture test tubes (Falcon No. 2054) and cultured at 37° C. for 5 hours in the presence of 5% carbonic acid gas in a carbonic acid gas incubator. CDDP and/or SAMes were (was) then added into each culture test tube and incubation was continued for further one hour. The cultures were centrifuged at 1,600 rpm for 5 minutes and the culture medium was removed with suction. Two ml of RPMI 1640 was added to the residue and the mixture was cultured for 72 hours under the same conditions as described above, whereafter the number of cells in each of the resulting cultures was measured on a Coulter counter (Model ZB).

[3] = tested on: MCAS ovarian cyst adenocarcinoma; assay: Test Example 10: antitumor activity against human tumors, MCAS; type: cell-based; details: CDDP alone
Protocol: (§2) After the culture medium was removed with suction, the respective residues were washed once with cold PBS (-), supplemented with 2 ml portions of fresh medium and then cultured for further 72 hours. The cells were treated with trypsin, diluted and then counted using a Coulter counter.
(§3) Culture medium MEM: 10% fetal calf serum, Kanamycin (60 μg/ml)
MCAS: ovarian cyst adenocarcinoma;

[4] = tested on: L1210 leukemic cells; assay: Test Example 8: in vivo potentiation of antitumor activity of CDDP, L1210; design: species or system mouse (CDF1 strain); details: for Animals showing 30 days of survival / ILS: days 1 and 5; for Change in body weight: day 7 minus day 1
Text: Groups each containing six 8-week-old male mice of the CDF1 strain, weighing 24-28 g, were used. Mouse L1210 leukemic cells (10^5 cells) were transplanted into the abdominal cavity (on day 0).
wherein T stands for the average number of days of survival in the CDDP-administered groups of animals, and C for that in the non-CDDP-administered group (control group) of animals.
When the animals survived 30 days or more, the number of days of survival was deemed as 30 days for the purpose of calculation.
The administration was carried out intraperitoneally each time (on days 1 and 5). […] And the changes in body weight are presented as the difference between the mean body weights on days 1 and 7 (average body weight on day 7--average body weight on day 1) for each group.

[5] = tested on: MKN28 gastric adenocarcinoma; assay: Test Example 10: antitumor activity against human tumors, MKN28; type: cell-based; details: CDDP alone
Protocol: as §2, §3
MKN28: gastric adenocarcinoma;

[6] = tested on: PA-1 ovarian teratoma; assay: Test Example 10: antitumor activity against human tumors, PA-1; type: cell-based; details: CDDP alone
Protocol: as §2, §3

[7] = tested on: L1210 leukemic cells; assay: Test Example 11: potentiation by intraperitoneally or intravenously administered SAMe against mouse tumor L1210; type: in vivo, mouse (CDF1)
Text: Groups each containing six 8- to 9-week-old male CDF1 mice weighing 24-28 g were used. Mouse L1210 leukemic cells (10^5 cells) were transplanted into the abdominal cavity (on day 0).

[8] = tested on: WiDr colon adenocarcinoma; assay: Test Example 10: antitumor activity against human tumors, WiDr; type: cell-based; details: CDDP alone
Protocol: as §2, §3
WiDr: colon adenocarcinoma;

[9] = tested on: A549 pulmonary adenocarcinoma; assay: Test Example 10: antitumor activity against human tumors, A549; type: cell-based; details: CDDP alone
Protocol: as §2, §3
A549: pulmonary adenocarcinoma;

[10] = tested on: P388 leukemic cells; assay: Test Example 7: in vitro antitumor activity, P388; type: cell-based, mouse; details: CDDP alone
Protocol: The cultures were centrifuged at 1,600 rpm for 5 minutes and the culture medium was removed with suction.

[11] = tested on: DLD-1 colon adenocarcinoma; assay: Test Example 10: antitumor activity against human tumors, DLD-1; type: cell-based; details: CDDP alone
Protocol: as §2, §3
DLD-1: colon adenocarcinoma;

[12] = tested on: mouse tumors; assay: Antitumor activity in vitro, mouse tumors (summary); type: cell-based; details: CDDP alone
Protocol: as §1
(§4) Mouse Colon 26 colon tumor cells were adjusted to 5×10^3 cells/ml in culture medium […] culture was dispensed in 2 ml portions into culture Petri dishes. […] The culture medium was removed with suction, and after washing once with cold PBS(-) 2 ml portions of fresh medium were dispensed into the cultures, which were then cultured for further 72 hours. The cells were treated with trypsin, diluted and then counted using a Coulter counter.

[13] = tested on: LU65 pulmonary cancer; assay: Test Example 10: antitumor activity against human tumors, LU65; type: cell-based; details: CDDP alone
Protocol: as §2, §3

[14] = tested on: MKN45 gastric adenocarcinoma; assay: Test Example 10: antitumor activity against human tumors, MKN45; type: cell-based; details: CDDP alone
Protocol: as §2, §3
MKN45: gastric adenocarcinoma;

[15] = tested on: Colon 26 colon tumor cells; assay: Test Example 9: in vitro antitumor activity, Colon 26; type: cell-based, mouse; details: CDDP alone
Protocol: as §4

[16] = tested on: ACHN renal adenocarcinoma; assay: Test Example 10: antitumor activity against human tumors, ACHN; type: cell-based; details: CDDP alone
Protocol: as §2, §3
ACHN: renal adenocarcinoma

[17] = type: in vivo, rat (SD strain); details: for Concentration of SH compounds in blood plasma (as converted to glutathione concentration) / Concentration of SH compounds in renal tissue (as converted to glutathione concentration): mean ± S.D.
Protocol: Test method: To 6-week-old rats of the SD strain was intravenously administered SAMe in physiological saline (30 mg/kg, pH 6), and the blood level of SH group-containing compounds in the renal tissue was measured thereafter at 30, 60 and 120 minutes (N. Kaplowits et al., J. Pharmacol. Exp. Ther. , 1977, 200, 279-286) .
The values in the table for the concentration of SH compounds in the renal tissue and blood plasma presented as means ± standard deviation as calculated on the assumption that all the SH compounds were glutathione.

[18] = tested on: tumor cells; assay: Antitumor activity, all tumor cells tested (summary); type: cell-based, mouse and human; details: SAMe alone, respective tumor cells
Protocol: as §1
Mouse Colon 26 colon tumor cells were adjusted to 5×10^3 cells/ml in culture medium […] culture was dispensed in 2 ml portions into culture Petri dishes. […] The cells were treated with trypsin, diluted and then counted using a Coulter counter.
Human tumor cells which are listed below were adjusted to 5×10^3 -2×10^4 cells/ml in culture medium RPMI 1640 (N.B. 1) or MEM (N.B. 2), and the respective cultures were dispensed in 2 ml portions into culture Petri dishes. […] The cells were treated with trypsin, diluted and then counted using a Coulter counter.

[19] = intraperitoneal administration, rat; cited from earlier work
[20] = in vivo, iv
[21] = tested on: nephrotoxicity caused by CDDP; assay: Test Example 2: nephrotoxicity (BUN) after single administration of CDDP in the dog; type: in vivo, dog (beagle); details: for BUN concentration: mean ± SD
Protocol: Nine beagle dogs (weighing 10.2-14.5 kg; 24-36 months of age) were divided into three groups of three animals each. […] BUN values were measured every two days after the administration and compared.

[22] = 30 min after SAMe 30 mg/kg i.v.
[23] = 60 min after SAMe 30 mg/kg i.v.
[24] = 120 min after SAMe 30 mg/kg i.v.

With `N.N.[Cl][Pt][Cl]` [CDDP, cis-diamine-dichloroplatinum] the IC50 [1] was 4.1 to 150 µM, the IC50 [2] was 16.2 µM and the IC50 [3] was 150 µM. The “Animals showing 30 days of survival” value ([4]; CDDP 4 mg/kg alone i.p.) was 0/6, the ILS ([4]; CDDP 4 mg/kg alone i.p.) was 73% and the “Change in body weight” value ([4]; CDDP 4 mg/kg alone i.p.) was -2.4 g. The “Animals showing 30 days of survival” value ([4]; CDDP 6 mg/kg alone i.p.) was 0/6, the ILS ([4]; CDDP 6 mg/kg alone i.p.) was 121% and the “Change in body weight” value ([4]; CDDP 6 mg/kg alone i.p.) was -4.5 g. It also gave an IC50 [5] of 62.8 µM, an IC50 [6] of 4.1 µM and an ILS ([7]; CDDP 4 mg/kg alone, intraperitoneal) of 78%. The ILS ([7]; CDDP 4 mg/kg alone, intravenous) was 28%, the ILS ([7]; CDDP 6 mg/kg alone, intraperitoneal) was 84% and the IC50 [8] was 37.7 µM. It also gave an IC50 [9] of 18.7 µM, an IC50 [10] of 3.5 µM and an IC50 [11] of 23.5 µM. For the same molecule, the IC50 [12] was 3.5 to 41.7 µM, the IC50 [13] was 20.3 µM and the IC50 [14] was 25.4 µM. The IC50 [15] was 41.7 µM and the IC50 [16] was 48.4 µM.

For `C[S+](CC[C@H](N)C(=O)O)C[C@H]1O[C@@H](n2cnc3c(N)ncnc32)[C@H](O)[C@@H]1O` (stereo partly drawn) [SAMe, S-adenosyl-L-methionine], the IC50 ([2]; Mus musculus) was over 1000 µM, the “Concentration of SH compounds in blood plasma (as converted to glutathione concentration)” value [17, 22] was 12.2 ± 2.7 μg/ml blood plasma and the “Concentration of SH compounds in renal tissue (as converted to glutathione concentration)” value [17, 22] was 1219.3 ± 68.3 μg/g organ. The “Concentration of SH compounds in blood plasma (as converted to glutathione concentration)” value [17, 23] was 12.5 ± 2.1 μg/ml blood plasma, the “Concentration of SH compounds in renal tissue (as converted to glutathione concentration)” value [17, 23] was 1256.0 ± 125.3 μg/g organ and the “Concentration of SH compounds in blood plasma (as converted to glutathione concentration)” value [17, 24] was 18.5 ± 3.0 μg/ml blood plasma. The “Concentration of SH compounds in renal tissue (as converted to glutathione concentration)” value [17, 24] was 1201.1 ± 37.8 μg/g organ, the “Accumulation in renal tissue” value ([17]; rat, in vivo, iv) was “accumulate the SAMe specifically in the renal tissue” and the IC50 [18] was at least 1000 µM. The LD50 [19] was 2,000-2,500 mg/kg, the “Distribution to renal tissue” value [20] was “concentrates specifically at the renal tissue” and the “Metabolism at the renal tissue” value [20] was “converted through the process of transmethylation to S-adenosylhomocysteine”. The BUN concentration ([21]; SAMe 30 mg/kg i.v. with CDDP 4 mg/kg, day 1) was 15.0 ± 1.04 mg/dL, the BUN concentration ([21]; SAMe 30 mg/kg i.v. with CDDP 4 mg/kg, day 6) was 167.2 ± 102.30 mg/dL and the BUN concentration ([21]; SAMe 30 mg/kg i.v. with CDDP 4 mg/kg, day 12) was 41.62 ± 0.00 mg/dL. The “Mortality by day 7” value ([21]; SAMe 30 mg/kg with CDDP 4 mg/kg) was “two out of the three animals”, the BUN concentration ([21]; SAMe 100 mg/kg i.v. with CDDP 4 mg/kg, day 1) was 13.4 ± 2.80 mg/dL and the BUN concentration ([21]; SAMe 100 mg/kg i.v. with CDDP 4 mg/kg, day 6) was 27.6 ± 19.151 mg/dL. For the same molecule, the BUN concentration ([21]; SAMe 100 mg/kg i.v. with CDDP 4 mg/kg, day 12) was 25.5 ± 13.36 mg/dL.
